Molecules are shown by their SMILES. Counter-ions that a name gives are not always drawn.

A word on the Ki: it is the dissociation constant of the complex between target and ligand, obtained from inhibition or displacement.

Chain of mouse TAAR1 (Q923Y8 whole entry): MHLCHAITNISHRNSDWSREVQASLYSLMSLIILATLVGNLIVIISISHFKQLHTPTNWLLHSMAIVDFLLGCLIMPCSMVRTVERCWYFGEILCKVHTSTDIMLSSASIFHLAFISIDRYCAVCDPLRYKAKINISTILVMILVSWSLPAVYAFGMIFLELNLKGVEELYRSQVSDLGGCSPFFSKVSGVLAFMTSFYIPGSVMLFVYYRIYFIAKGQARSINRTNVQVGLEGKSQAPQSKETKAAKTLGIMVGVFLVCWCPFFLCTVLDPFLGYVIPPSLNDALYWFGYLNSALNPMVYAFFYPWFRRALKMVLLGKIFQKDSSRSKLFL

The target of one experiment is mouse TAAR1 (Mus musculus (Mouse), UniProt Q923Y8). Nature of the experiment: Radioligand binding assay on mouse TAAR1. The following applies: mouse TAAR1, HEK-293 membranes, first value of cell mouse/rat; read-out: Ki (μM) mouse. The protocol:
(§1) For the construction of expression plasmids the coding sequences of human, rat and mouse TAAR1 were amplified from genomic DNA essentially as described by Lindemann et al.. The Expand High Fidelity PCR System (Roche Diagnostics) was used with 1.5 mM Mg^2+ and purified PCR products were cloned into pCR2.1-TOPO cloning vector (Invitrogen) following the instructions of the manufacturer. PCR products were subcloned into the pIRESneo2 vector (BD Clontech, Palo Alto, Calif.), and expression vectors were sequence verified before introduction in cell lines.
(§2) HEK293 cells (ATCC #CRL-1573) were cultured essentially as described by Lindemann et al. (2005). For the generation of stably transfected cell lines HEK293 cells were transfected with the pIRESneo2 expression plasmids containing the TAAR coding sequences (described above) with Lipofectamine 2000 (Invitrogen) according to the instructions of the manufacturer, and 24 hrs post transfection the culture medium was supplemented with 1 mg/ml G418 (Sigma, Buchs, Switzerland). After a culture period of about 10 d clones were isolated, expanded and tested for responsiveness to trace amines (all compounds purchased from Sigma) with the cAMP Biotrak Enzyme immunoassay (EIA) System (Amersham) following the non-acetylation EIA procedure provided by the manufacturer.
Radioligand Binding Assay on Mouse TAAR1
(§3) Membrane Preparation and Radioligand Binding.
(§4) HEK-293 cells stably expressing mouse TAAR1 were maintained at 37° C. and 5% CO2 in DMEM high glucose medium, containing fetal calf serum (10%, heat inactivated for 30 min at 56° C.), penicillin/streptomycin (1%), and 375 μg/ml geneticin (Gibco). Cells were released from culture flasks using trypsin/EDTA, harvested, washed twice with ice-cold PBS (without Ca^2+ and Mg^2+), pelleted at 1,000 rpm for 5 min at 4° C., frozen and stored at −80° C. Frozen pellets were suspended in 20 ml HEPES-NaOH (20 mM, pH 7.4) containing 10 mM EDTA and homogenized with a Polytron (PT 6000, Kinematica) at 14,000 rpm for 20 s. The homogenate was centrifuged at 48,000×g for 30 min at 4° C. Subsequently, the supernatant was removed and discarded, and the pellet resuspended in 20 ml HEPES-NaOH (20 mM, pH 7.4) containing 0.1 mM EDTA using the Polytron (20 s at 14,000 rpm). This procedure was repeated and the final pellet resuspended in HEPES-NaOH containing 0.1 mM EDTA and homogenized using the Polytron. Typically, aliquots of 2 ml membrane portions were stored at −80° C. With each new membrane batch the dissociation constant (Kd) was determined via a saturation curve. […] Nonspecific binding was defined as the amount of ^3[H]—(S)-4-[(ethyl-phenyl-amino)-methyl]-4,5-dihydro-oxazol-2-ylamine bound in the presence of 10 μM unlabeled ligand. All compounds were tested at a broad range of concentrations (10 pM to 10 μM) in duplicates. […] The 96 deep well plates were incubated for 1 hr at 4° C. Incubations were terminated by rapid filtration through Unifilter-96 plates (Packard Instrument Company) and glass filters GF/C (Perkin Elmer) presoaked for 1 hr in polyethylenimine (0.3%) and washed 3 times with 1 ml of cold binding buffer. After addition of 45 μl of Microscint 40 (PerkinElmer) the Unifilter-96 plate was sealed and after 1 hr the ratioactivity counted using a TopCount Microplate Scintillation Counter (Packard Instrument Company).
Take `O=C(Nc1ccc(C2CNCCO2)cc1)c1ccc(Cl)c(Cl)c1` (racemic) [Example 147, (RS)-3,4-Dichloro-N-(4-morpholin-2-yl-phenyl)-benzamide hydrochloride]: the Ki was found to be 0.001 µM.
Still for that read-out and setting: for `O=C(Nc1ccc(C2CCNC2)cn1)c1ccc(Cl)cc1` (racemic) [Example 181, (RS)-4-Chloro-N-(5-(pyrrolidin-3-yl)pyridin-2-yl)benzamide hydrochloride] the value was 0.0663 µM.
As to `CCN1CCC(c2ccc(NC(=O)c3ccc(Cl)cc3)cc2)C1` (racemic) [Example 33, (RS)-4-Chloro-N-[4-(1-ethyl-pyrrolidin-3-yl)-phenyl]-benzamide], the Ki was 0.0006 µM.
On to `C[C@@H](C(=O)Nc1ccc(C2CCNC2)cc1)c1ccccc1` (mixture of isomers) [Example 29, (R)-2-Phenyl-N—((RS)-4-pyrrolidin-3-yl-phenyl)-propionamide], for which the Ki was 0.102 µM.
The same measure, in the same setting: for `COc1cccc(C(C)C(=O)Nc2ccc(C3CCNC3)cc2)c1` (racemic) [Example 67, (RS)-2-(3-Methoxy-phenyl)-N—((RS)-4-pyrrolidin-3-yl-phenyl)-propionamide] the value was 0.499 µM; for `O=C(Nc1ccc(COC2CCNC2)cc1)c1ccc(Cl)cc1` (racemic) [Example 145, (RS)-4-Chloro-N-[4-(pyrrolidin-3-yloxymethyl)-phenyl]-benzamide hydrochloride], 0.0227 µM; for `COc1ccc(C(=O)Nc2ccc(C3CCNC3)cc2)cc1` (racemic) [Example 183, (RS)-4-Methoxy-N-(4-(pyrrolidin-3-yl)phenyl)benzamide hydrochloride], 0.0526 µM.
On the same count and under the same terms, for `CN1CCOC(c2ccc(NC(=O)c3ccc(Cl)cc3)cc2)C1` (racemic) [Example 80, (RS)-4-Chloro-N-[4-(4-methyl-morpholin-2-yl)-phenyl]-benzamide] the value was 0.0035 µM; for `O=C(Nc1ccc(C2CCNC2)cc1)N1CCCCC1` (racemic) [Example 28, (RS)-Piperidine-1-carboxylic acid (4-pyrrolidin-3-yl-phenyl)-amide], 0.434 µM.
The same measure, in the same setting: as for `C[C@H](C(=O)Nc1ccc(C2CCNC2)cc1)c1ccccc1` (mixture of isomers) [Example 30, (S)-2-Phenyl-N—((RS)-4-pyrrolidin-3-yl-phenyl)-propionamide], the figure is 0.053 µM.
With `O=C(Nc1ccc(C2CNCCO2)cc1)c1ccc(Cl)cn1` (racemic) [Example 148, (RS)-5-Chloro-pyridine-2-carboxylic acid (4-morpholin-2-yl-phenyl)-amide hydrochloride], the Ki was 0.0393 µM.

In another experiment the target is rat TAAR1 (Rattus norvegicus (Rat), UniProt Q923Y9). Nature of the experiment: Radioligand binding assay on rat TAAR1. The following applies: rat TAAR1, HEK-293 membranes, second value of cell mouse/rat; read-out: Ki (μM) rat. The protocol: as §1, §2
Chain of rat TAAR1 (Q923Y9 whole entry): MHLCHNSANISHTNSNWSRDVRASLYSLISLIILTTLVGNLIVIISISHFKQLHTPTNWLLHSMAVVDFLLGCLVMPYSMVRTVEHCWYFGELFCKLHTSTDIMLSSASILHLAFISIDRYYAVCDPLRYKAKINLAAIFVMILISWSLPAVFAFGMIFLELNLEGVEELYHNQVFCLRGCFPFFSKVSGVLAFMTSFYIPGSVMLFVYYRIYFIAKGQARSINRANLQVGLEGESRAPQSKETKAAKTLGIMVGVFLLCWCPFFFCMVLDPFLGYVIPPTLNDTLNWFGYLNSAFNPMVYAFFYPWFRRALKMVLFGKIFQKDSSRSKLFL
Radioligand Binding Assay on Rat TAAR1
as §3
as §4, with “rat” for “mouse”
As to `O=C(Nc1ccc(C2CCNC2)cc1)N1CCOCC1` (racemic) [Example 21, (RS)-Morpholine-4-carboxylic acid (4-pyrrolidin-3-yl-phenyl)-amide hydrochloride], the Ki came to 0.359 µM.
Still for that read-out and setting: for `CN(C(=O)Nc1ccc(C2CCNC2)cc1)c1ccccc1` (racemic) [Example 14, (RS)-1-Methyl-1-phenyl-3-(4-pyrrolidin-3-yl-phenyl)-urea] the value was 0.645 µM.
On the same count and under the same terms, for `O=C(Cc1ccccc1)Nc1ccc(C2CCNC2)cc1` (racemic) [Example 12, (RS)-2-Phenyl-N-(4-pyrrolidin-3-yl-phenyl)-acetamide hydrochloride] the value was 0.29 µM; for `O=C(NCc1ccccc1)Nc1ccc(C2CCNC2)cc1` (racemic) [Example 9, (RS)-1-Benzyl-3-(4-pyrrolidin-3-yl-phenyl)-urea hydrochloride], 1.11 µM.
On the same count and under the same terms, as for `O=C(Nc1ccc(C2CCCNC2)cn1)c1ccc(Cl)cc1` (racemic) [Example 187, (RS)-4-Chloro-N-(5-(piperidin-3-yl)pyridin-2-yl)benzamide hydrochloride], the figure is 0.0123 µM; as for `O=C(Nc1ccc(C2CCNC2)cc1)NC1CCCCC1` (racemic) [Example 10, (RS)-1-Cyclohexyl-3-(4-pyrrolidin-3-yl-phenyl)-urea hydrochloride], 0.309 µM; as for `COCc1ccc(C(=O)Nc2ccc(C3CCNC3)cc2)cc1` (racemic) [Example 51, (RS)-4-Methoxymethyl-N-(4-pyrrolidin-3-yl-phenyl)-benzamide hydrochloride], 0.0985 µM.
`Cc1cnc(C(=O)Nc2ccc([C@@H]3CCCNC3)cc2)cn1` [Example 247, (S)-5-Methyl-N-(4-(piperidin-3-yl)phenyl)pyrazine-2-carboxamide hydrochloride]: the Ki worked out at 0.0677 µM.
The same measure, in the same setting: as for `O=C(Nc1ccc(C2CCNC2)cc1)OCCc1ccc(OC(F)(F)F)cc1` (racemic) [Example 125, (RS)-(4-Pyrrolidin-3-yl-phenyl)-carbamic acid 2-(4-trifluoromethoxy-phenyl)-ethyl ester], the figure is 0.0007 µM; as for `CC1(c2ccc(NC(=O)c3ccccc3)cc2)CCNC1` (racemic) [Example 41, (RS)—N-[4-(3-Methyl-pyrrolidin-3-yl)-phenyl]-benzamide], 2.98 µM; as for `O=C(Nc1ccc(C2CNCCO2)cc1)C1CCN(c2ccncn2)CC1` (racemic) [Example 287, (RS)—N-(4-(Morpholin-2-yl)phenyl)-1-(pyrimidin-4-yl)piperidine-4-carboxamide dihydrochloride], 0.379 µM.
For `O=C(NCc1ccc([C@H]2CNCCO2)cc1)c1ccc(Cl)cc1` [Example 317, (S)-4-Chloro-N-(4-(morpholin-2-yl)benzyl)benzamide hydrochloride], the Ki amounted to 0.0226 µM.
Still for that read-out and setting: for `O=C(NCc1ccc([C@H]2CNCCO2)cc1)c1ccc(Cl)nc1` [Example 319, (S)-6-Chloro-N-(4-(morpholin-2-yl)benzyl)nicotinamide hydrochloride] the value was 0.0206 µM; for `O=C(Nc1ccc(C2CNCCO2)cc1)c1ccc(Cl)cc1` (racemic) [Example 71, (RS)-4-Chloro-N-(4-morpholin-2-yl-phenyl)-benzamide hydrochloride], 0.0121 µM.
Same read-out and setting: for `O=C(Nc1ccc(C2CCN(c3ccccc3)C2)cc1)c1ccc(Cl)cc1` (racemic) [Example 36, (RS)-4-Chloro-N-[4-(1-phenyl-pyrrolidin-3-yl)-phenyl]-benzamide] the value was 0.324 µM.

The experiment is the same for the next values; noted with them: read-out: Ki (μM) rat.
Regarding `O=C(NCc1ccc([C@H]2CNCCO2)cc1)c1ccc(C(F)(F)F)nc1` [Example 320, (S)—N-(4-(Morpholin-2-yl)benzyl)-6-(trifluoromethyl)nicotinamide hydrochloride], the Ki is 0.0249 µM.

These data come from patent US9452980B2, “Substituted benzamides” (Hoffmann-La Roche Inc., priority 2009, dated 2016).
